Series [1] concerns progesterone receptor (alkaline phosphatase activity in T47D cells). Kind of series: Effects of progestins and antiprogestins on alkaline phosphatase activity in T47D cells (antagonist mode). The class given is cell-based. Particulars: Homo sapiens, in the presence of 1 nM progesterone, 24 h; for inhibition at 0.003 µM: at 3 nM. Here is the method:
(1) Effects of Progestins and Antiprogestins on Alkaline Phosphatase Activity in T47D Cells.
• PURPOSE: To identify progestins or antiprogestins by determining a compound's effect on alkaline phosphatase activity in T47D cells.
Culture medium: • DMEM:F12 (1:1) (GIBCO, BRL) supplemented with 5% (v/v) charcoal stripped fetal bovine serum (not heat-inactivated), 100 U/mL penicillin, 100 μg/mL streptomycin, and 2 mM the GlutaMax™ reagent (GIBCO, BRL).
Alkaline phosphatase assay buffer: • I. 0.1M Tris-HCl, pH 9.8, containing 0.2% the Triton® X-100 reagent • II. 0.1M Tris-HCl, pH 9.8, containing 4 mM p-nitrophenyl phosphate (Sigma).
Frozen T47D cells were thawed in a 37° C. water bath and diluted to 280,000 cells/mL in culture medium. To each well in a 96-well plate (Falcon, Becton Dickinson Labware), 180 μL of diluted cell suspension was added.
Twenty μL of reference or test compounds diluted in the culture medium was then added to each well. When testing for progestin antagonist activity, reference antiprogestins or test compounds were added in the presence of 1 nM progesterone. The cells were incubated at 37° C. in a 5% CO2/humidified atmosphere for 24 h. NOTE: For high throughput screening, one concentration of each compound was tested at 0.3 μg/mL. Based on an average molecular weight of 300 g/mol for the compounds in the library, the concentration was approximately 1 μM. Subsequently, active compounds were tested in dose response assays to determine EC50 and IC50.
At the end of treatment, the medium was removed from the plate. Fifty μL of assay buffer I was added to each well. The plates were shaken in a titer plate shaker for 15 min. Then 150 μL of assay buffer II was added to each well. Optical density measurements were taken at 5 min intervals for 30 min at a test wavelength of 405 nm.
For reference and test compounds, a dose response curve was generated for dose (X-axis) vs. the rate of enzyme reaction (slope) (Y-axis). Square root-transformed data was used for analysis of variance and nonlinear dose response curve fitting for both agonist and antagonist modes. Huber weighting was used to down-weight the effects of outliers. EC50 or IC50 values were calculated from the retransformed values. JMP software (SAS Institute, Inc.) was used for both one-way analysis of variance and non-linear dose response analysis in both single dose and dose response studies.
Progesterone and trimegestone were reference progestins and RU486 was the reference antiprogestin. All reference compounds were run in full dose response curves and the EC50 and IC50 values were calculated.

One may read the melting point as the temperature of the solid-liquid transition. In general, IC50 refers to the concentration that inhibits the measured activity by half. The inhibition is the drop in the measured response relative to a control, in per cent.

In the case of `CC1(C)COC(=O)N1c1nc(-c2cccc(C#N)c2)cs1` [Example 3, 3-[2-(4,4-dimethyl-2-oxo-1,3-oxazolidin-3-yl)-1,3-thiazol-4-yl]benzonitrile], the melting point is 181 to 183 °C.
As for `O=C1C2CCC(CC2)N1c1nc(-c2ccc(Br)cc2)cs1` [Example 10, 2-[4-(4-bromophenyl)-1,3-thiazol-2-yl]-2-azabicyclo[2.2.2]octan-3-one], the IC50 in series [1] amounted to 0.0444 µM.
The molecule `C[C@@H]1COC(=O)N1c1nc(-c2ccc(Br)cc2)cs1` [Example 1, (4R)-3-[4-(4-Bromophenyl)-1,3-thiazol-2-yl]-4-methyl-1,3-oxazolidin-2-one] showed a melting point of 197 to 199 °C.
With `CC1(C)CCC(=O)N1c1nc(-c2ccc(C#N)cc2)cs1` [Example 8, 4-[2-(2,2-Dimethyl-5-oxopyrrolidin-1-yl)-1,3-thiazol-4-yl]benzonitrile], the inhibition at 0.003 µM in series [1] came out at 50%.
As for `CC1(C)CCC(=O)N1c1nc(-c2ccc(C#N)cc2)c(F)s1` [Example 9, 4-[2-(2,2-Dimethyl-5-oxopyrrolidin-1-yl)-5-fluoro-1,3-thiazol-4-yl]benzonitrile], the IC50 in series [1] amounted to 0.0316 µM.
On the same count and under the same terms, in the case of `N#Cc1ccc(-c2csc(N3C(=O)C4CCC3CC4)n2)cc1` [Example 11, 4-[2-(3-oxo-2-azabicyclo[2.2.2]oct-2-yl)-1,3-thiazol-4-yl]benzonitrile] it was 0.0048 µM.
On to `CCC1(CC)COC(=O)N1c1nc(-c2ccc(C#N)cc2)cs1` [Example 2, 4-[2-(4,4-Diethyl-2-oxo-1,3-oxazolidin-3-yl)-1,3-thiazol-4-yl]benzonitrile], for which the melting point lay in the range of 145 to 147 °C.
As for `CC1(C)C=CC(=O)N1c1nc(-c2ccc(C#N)cc2)cs1` [Example 7, 4-[2-(2,2-Dimethyl-5-oxo-2,5-dihydro-1H-pyrrol-1-yl)-1,3-thiazol-4-yl]benzonitrile], in series [1], the inhibition at 0.003 µM came out at 60%.

These data come from patent US20080045560A1, “Pyrrolidine and related derivatives useful as PR modulators” (Wyeth, priority 2006, published 2008).
